Measurements: ChEMBL document CHEMBL3044965, “Design, synthesis, and antimalarial evaluation of thiazole-derived amino acids” (Med Chem Res, 2008)
Active and inactive are the calls of the source. The rule behind the calls is not given here.

Assays:
Plasmodium falciparum [1] = experiment: Antiplasmodial activity against chloroquine-resistant Plasmodium falciparum assessed as inhibition of [3H]hypoxanthine incorporation incubated for 20 to 24 hr prior to [3H]hypoxanthine addition measured after 24 grs by microbeta scintillation counting; type: functional, organism-based
Plasmodium falciparum [2] = experiment: Antiplasmodial activity against chloroquine-sensitive Plasmodium falciparum assessed as inhibition of [3H]hypoxanthine incorporation incubated for 20 to 24 hr prior to [3H]hypoxanthine addition measured after 24 grs by microbeta scintillation counting; type: functional, organism-based
[3] = Cytotoxicity against Homo sapiens (human) RBC assessed as cell lysis; type: cell-based; settings: erythrocyte
Plasmodium falciparum [4] = experiment: Antiplasmodial activity against chloroquine-resistant Plasmodium falciparum by schizont maturation assay; type: functional, organism-based
Plasmodium falciparum [5] = experiment: Antiplasmodial activity against chloroquine-sensitive Plasmodium falciparum by schizont maturation assay; type: functional, organism-based

Question: What does the source list for `C[C@H](NC(=O)OC(C)(C)C)C(=O)Nc1nccs1`?
Answer: IC50 (Plasmodium falciparum [1]): 18.7 µM; IC90 (Plasmodium falciparum [1]): 27.2 µM; IC50 (Plasmodium falciparum [2]): 12.1 µM; IC90 (Plasmodium falciparum [2]): 24.5 µM

Question: With `N[C@H](Cc1ccccc1)C(=O)Nc1nccs1` as the compound, how does the IC50 (Plasmodium falciparum [1]) read?
Answer: 17.4 µM

Question: What about the IC90 (Plasmodium falciparum [1]) of the same compound?
Answer: 45.7 µM

Question: And the IC50 (Plasmodium falciparum [2])?
Answer: 16.1 µM

Question: What about the IC90 (Plasmodium falciparum [2]) of the same compound?
Answer: 33.5 µM

Question: Which IC50 (Plasmodium falciparum [1]) does the source give for `CSCC[C@H](NC(=O)OC(C)(C)C)C(=O)Nc1nccs1` here?
Answer: 18.2 µM

Question: And the IC90 (Plasmodium falciparum [1])?
Answer: 31.4 µM

Question: And the IC50 (Plasmodium falciparum [2])?
Answer: 10.2 µM

Question: And the IC90 (Plasmodium falciparum [2])?
Answer: 29.1 µM

Question: With `CC(C)C[C@H](NC(=O)OC(C)(C)C)C(=O)Nc1nccs1` as the compound, how does the IC50 (Plasmodium falciparum [1]) read?
Answer: 8.96 µM

Question: What about the IC90 (Plasmodium falciparum [1]) of the same compound?
Answer: 18.3 µM

Question: What about the IC50 (Plasmodium falciparum [2]) of the same compound?
Answer: 6.31 µM

Question: What about the IC90 (Plasmodium falciparum [2]) of the same compound?
Answer: 14.5 µM

Question: For `CC(C)(C)OC(=O)N[C@@H](CSCc1ccccc1)C(=O)Nc1nccs1`, which IC50 (Plasmodium falciparum [1]) is on record?
Answer: 10.8 µM

Question: What about the IC90 (Plasmodium falciparum [1]) of the same compound?
Answer: 15.5 µM

Question: And the IC50 (Plasmodium falciparum [2])?
Answer: 9.11 µM

Question: What about the IC90 (Plasmodium falciparum [2]) of the same compound?
Answer: 12.6 µM

Question: For `CC(C)[C@H](NC(=O)OC(C)(C)C)C(=O)Nc1nccs1`, which IC50 (Plasmodium falciparum [1]) is on record?
Answer: 10.9 µM

Question: What about the IC90 (Plasmodium falciparum [1]) of the same compound?
Answer: 18.6 µM

Question: What about the IC50 (Plasmodium falciparum [2]) of the same compound?
Answer: 9.32 µM

Question: And the IC90 (Plasmodium falciparum [2])?
Answer: 12.5 µM

Question: For `N[C@H](Cc1c[nH]c2ccccc12)C(=O)Nc1nccs1`, which IC50 (Plasmodium falciparum [1]) is on record?
Answer: 19.5 µM

Question: What about the IC90 (Plasmodium falciparum [1]) of the same compound?
Answer: 17.1 µM

Question: What about the IC50 (Plasmodium falciparum [2]) of the same compound?
Answer: 11.1 µM

Question: And the IC90 (Plasmodium falciparum [2])?
Answer: 16.1 µM

Question: Which results are given for `CC(C)(C)OC(=O)N[C@@H](Cc1ccccc1)C(=O)Nc1nccs1`?
Answer: IC50 (Plasmodium falciparum [1]): 7.41 µM; IC90 (Plasmodium falciparum [1]): 18.6 µM; IC50 (Plasmodium falciparum [2]): 5.62 µM; IC90 (Plasmodium falciparum [2]): 16.3 µM

Question: For `CCN(CC)CCCC(C)Nc1ccnc2cc(Cl)ccc12` (stereo not drawn) [CHLOROQUINE], which IC90 (Plasmodium falciparum [1]) is on record?
Answer: 0.25 µM

Question: What about the IC90 (Plasmodium falciparum [2]) of the same compound?
Answer: 0.05 µM

Question: Which results are given for `CC[C@H](C)[C@H](NC(=O)OC(C)(C)C)C(=O)Nc1nccs1`?
Answer: IC50 (Plasmodium falciparum [1]): 7.84 µM; IC90 (Plasmodium falciparum [1]): 11.1 µM; IC50 (Plasmodium falciparum [2]): 6.32 µM; IC90 (Plasmodium falciparum [2]): 9.74 µM

Question: For `CC1CCCN1[C@H](NC(=O)OC(C)(C)C)C(=O)Nc1nccs1` (stereo partly drawn), which Activity [3] is on record?
Answer: Non-toxic

Question: And the Activity (Plasmodium falciparum [4])?
Answer: Active

Question: And the Activity (Plasmodium falciparum [5])?
Answer: Active

Question: And the IC50 (Plasmodium falciparum [1])?
Answer: 6.12 µM

Question: And the IC90 (Plasmodium falciparum [1])?
Answer: 12.7 µM

Question: What about the IC50 (Plasmodium falciparum [2]) of the same compound?
Answer: 4.89 µM

Question: What about the IC90 (Plasmodium falciparum [2]) of the same compound?
Answer: 11.1 µM

Question: And the IC99 (Plasmodium falciparum [2])?
Answer: 14.9 µM

Question: Which Activity [3] does the source give for `CC(C)(C)OC(=O)N[C@@H](Cc1c[nH]c2ccccc12)C(=O)Nc1nccs1` here?
Answer: Non-toxic

Question: And the Activity (Plasmodium falciparum [4])?
Answer: Active

Question: What about the Activity (Plasmodium falciparum [5]) of the same compound?
Answer: Active

Question: What about the IC50 (Plasmodium falciparum [1]) of the same compound?
Answer: 4.87 µM

Question: What about the IC90 (Plasmodium falciparum [1]) of the same compound?
Answer: 9.12 µM

Question: And the IC50 (Plasmodium falciparum [2])?
Answer: 3.45 µM

Question: What about the IC90 (Plasmodium falciparum [2]) of the same compound?
Answer: 7.89 µM

Question: And the IC99 (Plasmodium falciparum [2])?
Answer: 18.1 µM

Question: With `CC(C)(C)OC(=O)NCC(=O)Nc1nccs1` as the compound, how does the IC50 (Plasmodium falciparum [1]) read?
Answer: 17.5 µM

Question: And the IC90 (Plasmodium falciparum [1])?
Answer: 22.4 µM

Question: And the IC50 (Plasmodium falciparum [2])?
Answer: 14.3 µM

Question: What about the IC90 (Plasmodium falciparum [2]) of the same compound?
Answer: 21.3 µM
